According to EPA's ToxValDB 9.5 (doi:10.2903/j.efsa.2013.3469):
Converted amounts (≈) assume the structure as drawn.

Columns and labels:
Typhlodromus pyri [1] = conditions: not reported; mortality
Apis mellifera = conditions: acute; oral; unspecified; mortality
Tagia sp. = conditions: acute, duration: 14 days
Folsomia candida = conditions: chronic/long-term; mortality
Anas platyrhynchos = conditions: oral, mortality
Daphnia magna = conditions: chronic/long-term; duration: 21 days; reproduction
Bibionidae = conditions: chronic/long-term; duration: 28 days; development
Typhlodromus pyri [2] = assay: LR50; higher = less toxic; conditions: not reported; mortality

CC1(C)[C@H](C(=O)O[C@H](C#N)c2cccc(Oc3ccccc3)c2)[C@@H]1/C=C\C(=O)OC(C(F)(F)F)C(F)(F)F [Acrinathrin]
NOEC (Typhlodromus pyri [1]): 0.00068 g/ha | LD50 (Apis mellifera): 0.077 µg/piece | NOEC (Tagia sp.; biomass): 1.6 mg/kg | LC50 (Tagia sp.; mortality): > 1000 mg/kg | NOEC (Folsomia candida): < 1 mg/kg | LD50 (Anas platyrhynchos; acute, unspecified): > 2000 mg/kg-day | NOEC (Anas platyrhynchos; short-term, feed): 173 mg/kg-day | LC50 (Pimephales promelas; acute, duration: 96 hours, mortality): 1.7 ng/mL (≈ 3.14 nM) | NOEC (Pimephales promelas; chronic/long-term, duration: 28 days): 1.1e-05 mg/L | LD50 (Colinus virginianus; acute, oral, mortality): > 2250 mg/kg-day | NOEC (Colinus virginianus; reproduction developmental, reproduction): 19.9 mg/kg-day | NOEC (Colinus virginianus; short-term, oral, diet, mortality): 325 mg/kg-day | NOEC (Daphnia magna): 3.2e-06 mg/L | NOEC (Bibionidae): 3.1e-05 mg/L | LD50 (Rattus norvegicus; acute, oral, mortality): > 5000 mg/kg-day | NOAEL (Rattus norvegicus; acute, oral, neurology): 1 mg/kg-day | NOAEL (Rattus norvegicus; reproduction developmental, no effects): 9.4 mg/kg-day | LR50 (Typhlodromus pyri [2]): 0.006 g/ha
